Data on 29 compounds can be found in patent US20220298115A1, “SMALL MOLECULE INHIBITORS OF ACETYL COENZYME A SYNTHETASE SHORT CHAIN 2 (ACSS2)” (Curadev Pharma Pvt. Ltd., priority 2019, published 2022).

A word on the IC50: it is the concentration that inhibits the measured activity by half.

The target in experiment [1] is T1, human ACSS2 (Homo sapiens, UniProt Q9NR19).
T1 construct: The cytosolic fraction of BT474 cells was used as a source of the ACSS2 enzyme; endogenous in cells; host or cells: BT474 cells (cytosolic fraction)
Briefly: ACSS2 enzyme assay (acetyl-CoA formation, LC-MS/MS). Type of experiment: biochemical. The settings on record: cytosolic fraction of BT474 cells as ACSS2 source; 100 μM acetate, CoA and ATP; 2 h at 25° C.; read-out: Enzyme Activity (IC50 range). As to the method: Novel compounds were screened in a human ACSS2 enzyme assay. Briefly, the ACSS2 enzyme reaction was monitored by directly measuring acetyl-CoA formation. The cytosolic fraction of BT474 cells was used as a source of the ACSS2 enzyme. A short protocol for this assay is provided below.
Preparation of Cytosolic Fraction from BT474 Cells
9×10^6 cells were harvested by trypsinization followed by centrifugation. The cell pellet was washed with PBS and dissolved in 500 μl STM buffer (50 mM Tris-HCl pH7.4, 250 mM sucrose, 5 mM MgCl2 & protease-phosphatase inhibitor cocktail) and homogenized at 600-1000 rpm for 1 min. on ice followed by incubation for 30 min. with intermittent vortexing. Supernatant was collected by centrifugation at 800 g for 15 min. at 4° C. Cytosolic fraction was prepared by further centrifugation of the supernatant at 12000 g for 15 min. at 4° C. Total protein content of the cytosolic fraction was estimated & diluted to 1 mg/ml concentration in storage buffer (25 mM Tris-HCl pH7.4, 1 mM MgCl2, 1 mM DTT & 10% glycerol) and stored at −80° C. for further use.
100 ng of cytosolic fraction in buffer composed of 25 mM Tris-HCl pH7.4 1 mM MgCl2, 1 mM DTT & 0.05% Tween20 was preincubated with desired concentrations of novel compounds for 5 min. maintaining 1% DMSO. Reaction was started with addition of substrate mix (100 μM of acetate, CoA and ATP) and incubated for 2 h at 25° C. with constant shaking at 500 rpm. Post incubation the reaction was terminated by addition of 10% TCA followed by 5 fold dilution in water. The reaction mixture was centrifuged at 800 g for 10 min. at RT and acetyl-CoA detected in supernatant by LC-MS/MS (QTrap5500 ABSCIEX).

The subject of experiment [2] is [14C] acetate incorporation in macromolecules, BT474 cells. Briefly: Cell based [14C] acetate incorporation assay. The settings on record: read-out: Cellular Activity (IC50 range). As to the method:
Cell Based [^14C] Acetate Incorporation Assay
In the cellular assay, ACSS2 inhibitors were screened against [^14C] acetate incorporation in macromolecules. 4×10^4 BT474 cells were plated in 96 well plates in growth media composed of DMEM & 10% FBS and incubated overnight in a 37° C., 5% CO2 incubator. The following day the cells were washed in HBSS and the assay was performed in 100 μl of HBSS. 50 μl of 4× compound in 4% DMSO was added to the cells and preincubated for 10 min. at 37° C. 50 μl of acetate solution (0.1 μCi ^14C acetate+10 μM ^12C acetate) was added to each well of the plate and incubated for 3 h in a 37° C., 5% CO2 incubator. Following incubation, cells were harvested with water on polyethylene imine (PEI) presoaked GF/C filtermat, air dried and radioactive count were recorded in Trilux micro beta Liquid Scintillation Counter (PerkinElmer).

[3] abbreviates: Homo sapiens, BT-474, 3 h at 37° C.

The structures appear in SMILES notation. Read-outs that look alike come from different tables or passages of the source.

T1 sequence (Q9NR19 whole entry): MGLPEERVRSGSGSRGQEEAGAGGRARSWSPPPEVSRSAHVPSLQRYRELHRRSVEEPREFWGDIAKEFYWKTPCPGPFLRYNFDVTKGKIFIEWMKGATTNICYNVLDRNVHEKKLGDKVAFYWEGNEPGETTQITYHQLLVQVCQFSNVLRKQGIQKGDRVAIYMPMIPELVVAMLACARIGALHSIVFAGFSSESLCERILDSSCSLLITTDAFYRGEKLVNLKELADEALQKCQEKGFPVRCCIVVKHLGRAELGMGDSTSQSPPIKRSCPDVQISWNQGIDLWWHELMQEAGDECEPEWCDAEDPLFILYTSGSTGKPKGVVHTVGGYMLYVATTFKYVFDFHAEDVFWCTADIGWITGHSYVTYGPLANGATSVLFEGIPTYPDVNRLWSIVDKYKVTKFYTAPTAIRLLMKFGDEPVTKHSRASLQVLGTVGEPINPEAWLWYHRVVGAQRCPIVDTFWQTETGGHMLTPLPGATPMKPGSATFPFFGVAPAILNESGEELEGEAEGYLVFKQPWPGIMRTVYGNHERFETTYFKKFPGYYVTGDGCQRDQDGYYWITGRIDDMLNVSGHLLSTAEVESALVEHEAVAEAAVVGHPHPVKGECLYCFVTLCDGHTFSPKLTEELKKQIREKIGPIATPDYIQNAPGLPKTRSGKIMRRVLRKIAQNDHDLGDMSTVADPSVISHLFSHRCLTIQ

As to `CCC(O)CNC(=O)Nc1ccc2nc(-c3ccccc3)c(-c3ccccc3)cc2c1` (stereo not drawn) [Example 1, 1-(2,3-diphenylquinolin-6-yl)-3-(2-hydroxybutyl) urea], the IC50 in experiment [1] and in experiment [2] (setting [3]) was less than 0.1 µM each time.

For the compound `CC[C@@H](O)CNC(=O)Nc1ccc2nc(-c3ccccc3)c(-c3ccccc3)cc2c1` [Example 2, (R)-1-(2,3-diphenylquinolin-6-yl)-3-(2-hydroxybutyl) urea], the IC50 in experiment [1] and in experiment [2] (setting [3]) was less than 0.1 µM throughout.

With `CCCCNC(=O)Nc1ccc2nc(-c3ccccc3)c(-c3ccccc3)cc2c1` [Example 3, 1-butyl-3-(2,3-diphenylquinolin-6-yl)urea], the IC50 in experiment [1] and in experiment [2] (setting [3]) was less than 0.1 µM throughout.

With `CCC(O)CNC(=O)Nc1ccc2nc(-c3ccccc3F)c(-c3ccccc3F)cc2c1` (stereo not drawn) [Example 4, 1-(2,3-bis(2-fluorophenyl)quinolin-6-yl)-3-(2-hydroxybutyl) urea], the IC50 in experiment [1] and in experiment [2] (setting [3]) was less than 0.1 µM throughout.

On to `CCCCNC(=O)Nc1ccc2nc(-c3ccccc3)c(-c3ccccc3)cc2c1-c1cccnc1O` [Example 5, 1-butyl-3-(5-(2-hydroxypyridin-3-yl)-2,3-diphenylquinolin-6-yl)urea], for which the IC50 in experiment [1] and in experiment [2] (setting [3]) was less than 0.1 µM throughout.

As for `CCC(O)CNC(=O)Nc1ccc2nc(-c3ccccc3OC)c(-c3ccccc3OC)cc2c1` (stereo not drawn) [Example 6, 1-(2,3-bis(2-methoxyphenyl)quinolin-6-yl)-3-(2-hydroxybutyl) urea], the concentration for half-maximal inhibition (IC50) in experiment [1] and in experiment [2] (setting [3]) was less than 0.1 µM throughout.

In the case of `CCC(O)CNC(=O)Nc1ccc2nc(-c3ccccc3)c(-c3ccccc3F)cc2c1` (stereo not drawn) [Example 7, 1-(3-(2-fluorophenyl)-2-phenylquinolin-6-yl)-3-(2-hydroxybutyl) urea], the IC50 in experiment [1] and in experiment [2] (setting [3]) was less than 0.1 µM throughout.

In the case of `CCC(O)CNC(=O)Nc1ccc2nc(-c3ccccc3F)c(-c3ccccc3)cc2c1` (stereo not drawn) [Example 8, 1-(2-(2-fluorophenyl)-3-phenylquinolin-6-yl)-3-(2-hydroxybutyl) urea], the IC50 in experiment [1] and in experiment [2] (setting [3]) was less than 0.1 µM each time.

As for `CCC(O)CNC(=O)Nc1ccc2nc(-c3ccnc(OC)c3)c(-c3ccnc(OC)c3)cc2c1` (stereo not drawn) [Example 9, 1-(2,3-bis(2-methoxypyridin-4-yl)quinolin-6-yl)-3-(2-hydroxybutyl) urea], the IC50 in experiment [1] is greater than 10 µM; in experiment [2] (setting [3]), no more than 10 µM.

Regarding `CCC(O)CNC(=O)Nc1ccc2nc(-c3ccccc3)c(-c3ccccc3OC)cc2c1` (stereo not drawn) [Example 10, 1-(2-hydroxybutyl)-3-(3-(2-methoxyphenyl)-2-phenylquinolin-6-yl)urea], the IC50 in experiment [1] and in experiment [2] (setting [3]) was less than 0.1 µM each time.

In the case of `CCC(O)CNC(=O)Nc1ccc2nc(-c3ccc(OC)nc3)c(-c3ccc(OC)nc3)cc2c1` (stereo not drawn) [Example 11, 1-(2,3-bis(6-methoxypyridin-3-yl)quinolin-6-yl)-3-(2-hydroxybutyl) urea], the IC50 is no more than 1 µM in experiment [1] and no more than 10 µM in experiment [2] (setting [3]).

`CCC(O)CNC(=O)Nc1ccc2nc(-c3ccccc3OC)c(-c3ccccc3)cc2c1` (stereo not drawn) [Example 12, 1-(2-hydroxybutyl)-3-(2-(2-methoxyphenyl)-3-phenylquinolin-6-yl)urea]: the 50% inhibitory concentration (IC50) in experiment [1] and in experiment [2] (setting [3]) was less than 0.1 µM throughout.

For the compound `CCC(O)CNC(=O)Nc1ccc2nc(-c3cccnc3OC)c(-c3cccnc3OC)cc2c1` (stereo not drawn) [Example 13, 1-(2,3-bis(2-methoxypyridin-3-yl)quinolin-6-yl)-3-(2-hydroxybutyl) urea], the IC50 in experiment [1] and in experiment [2] (setting [3]) was no more than 1 µM throughout.

For `CCCCNC(=O)Nc1ccc2nc(-c3ccccc3F)c(-c3ccccc3F)cc2c1` [Example 14, 1-(2,3-bis(2-fluorophenyl)quinolin-6-yl)-3-butylurea], the half-maximal inhibitory concentration (IC50) in experiment [1] and in experiment [2] (setting [3]) was less than 0.1 µM throughout.

Consider `CC[C@@H](O)CNC(=O)Nc1ccc2nc(-c3ccccc3)c(-c3ccccc3F)cc2c1` [Example 15, (R)-1-(3-(2-Fluorophenyl)-2-phenylquinolin-6-yl)-3-(2-hydroxybutyl)urea], for which the IC50 in experiment [1] and in experiment [2] (setting [3]) was less than 0.1 µM throughout.

With `CCCCNC(=O)Nc1ccc2nc(-c3ccccc3)c(-c3ccccc3F)cc2c1` [Example 16, 1-butyl-3-(3-(2-fluorophenyl)-2-phenylquinolin-6-yl)urea], the IC50 in experiment [1] and in experiment [2] (setting [3]) was less than 0.1 µM throughout.

Turning to `CCC(O)CNC(=O)Nc1ccc2nc(-c3ccc(F)cc3)c(-c3ccc(F)cc3)cc2c1` (stereo not drawn) [Example 17, 1-(2,3-bis(4-fluorophenyl)quinolin-6-yl)-3-(2-hydroxybutyl) urea], the IC50 in experiment [1] and in experiment [2] (setting [3]) was less than 0.1 µM each time.

For the compound `CCC(O)CNC(=O)Nc1ccc2nc(-c3ccccc3OC)c(-c3ccccc3F)cc2c1` (stereo not drawn) [Example 18, 1-(3-(2-fluorophenyl)-2-(2-methoxyphenyl)quinolin-6-yl)-3-(2-hydroxybutyl) urea], the IC50 in experiment [1] and in experiment [2] (setting [3]) was less than 0.1 µM in each case.

Take `CCC(O)CNC(=O)Nc1ccc2nc(-c3cccnc3)c(-c3cccnc3)cc2c1` (stereo not drawn) [Example 19, 1-(2,3-di(pyridin-3-yl)quinolin-6-yl)-3-(2-hydroxybutyl) urea]: the IC50 in experiment [1] was less than 0.1 µM; in experiment [2] (setting [3]), no more than 10 µM.

In the case of `CC[C@@H](O)CNC(=O)Nc1ccc2nc(-c3ccccc3F)c(-c3ccccc3F)cc2c1` [Example 20, (R)-1-(2,3-Bis(2-fluorophenyl)quinolin-6-yl)-3-(2-hydroxybutyl)urea], the IC50 in experiment [1] and in experiment [2] (setting [3]) was less than 0.1 µM each time.

In the case of `CCC(O)CNC(=O)Nc1ccc2nc(-c3cccc(C(C)=O)c3)c(-c3cccc(C(C)=O)c3)cc2c1` (stereo not drawn) [Example 21, 1-(2,3-bis(3-acetylphenyl)quinolin-6-yl)-3-(2-hydroxybutyl) urea], the IC50 in experiment [1] and in experiment [2] (setting [3]) was no more than 10 µM each time.

Turning to `CCC(O)CNC(=O)Nc1ccc2nc(-c3cn[nH]c3)c(-c3cn[nH]c3)cc2c1` (stereo not drawn) [Example 22, 1-(2,3-di(1H-pyrazol-4-yl)quinolin-6-yl)-3-(2-hydroxybutyl) urea], the IC50 in experiment [1] is no more than 10 µM; in experiment [2] (setting [3]), greater than 10 µM.

For `CCCCNC(=O)Nc1ccc2nc(-c3ccccc3)c(-c3ccccc3OC)cc2c1` [Example 23, 1-butyl-3-(3-(2-methoxyphenyl)-2-phenylquinolin-6-yl)urea], the IC50 in experiment [1] and in experiment [2] (setting [3]) was less than 0.1 µM each time.

In the case of `CCC(O)CNC(=O)Nc1ccc2nc(-c3ccncc3)c(-c3ccncc3)cc2c1` (stereo not drawn) [Example 24, 1-(2,3-di(pyridin-4-yl)quinolin-6-yl)-3-(2-hydroxybutyl) urea], the IC50 in experiment [1] is no more than 1 µM; in experiment [2] (setting [3]), no more than 10 µM.

`CCC(O)CNC(=O)Nc1ccc2nc(-c3cccc(F)c3)c(-c3cccc(F)c3)cc2c1` (stereo not drawn) [Example 25, 1-(2,3-bis(3-fluorophenyl)quinolin-6-yl)-3-(2-hydroxybutyl) urea]: the IC50 in experiment [1] and in experiment [2] (setting [3]) was no more than 1 µM each time.

For the compound `CCC(O)CNC(=O)Nc1ccc2nc(-c3ccccc3F)c(-c3ccccc3OC)cc2c1` (stereo not drawn) [Example 26, 1-(2-(2-fluorophenyl)-3-(2-methoxyphenyl)quinolin-6-yl)-3-(2-hydroxybutyl) urea], the IC50 in experiment [1] and in experiment [2] (setting [3]) was less than 0.1 µM in each case.

`CCC(O)CNC(=O)Nc1ccc2nc(-c3ccc(=O)[nH]c3)c(-c3ccc(=O)[nH]c3)cc2c1` (stereo not drawn) [Example 27, 1-(2,3-bis(6-oxo-1,6-dihydropyridin-3-yl)quinolin-6-yl)-3-(2-hydroxybutyl) urea]: the results for the IC50 in experiment [1] and in experiment [2] (setting [3]) were no more than 1 µM and no more than 10 µM, respectively.

With `CC[C@H](O)CNC(=O)Nc1ccc2nc(-c3ccccc3F)c(-c3ccccc3F)cc2c1` [Example 28, (S)-1-(2,3-bis(2-fluorophenyl)quinolin-6-yl)-3-(2-hydroxybutyl) urea], the IC50 in experiment [1] and in experiment [2] (setting [3]) was less than 0.1 µM each time.

For the compound `CC[C@H](O)CNC(=O)Nc1ccc2nc(-c3ccccc3)c(-c3ccccc3)cc2c1` [Example 68, (S)-1-(2,3-diphenylquino-lin-6-yl)-3-(2-hydroxybutyl) urea], the IC50 in experiment [2] (3 h at 37° C.) is less than 0.1 µM.
